According to patent US20260315376A1, “NOVEL OPHTHALMIC COMPOSITION” (Cipla Limited, priority 2022, published 2026):
Values after ≈ are worked out from the molar mass of the structure shown.

Tests used:
[1] = tested on: Isolates from Bacterial Keratitis and/or Conjunctivitis; test: In vitro proof of concept study, overall antibacterial activity; assay type: cell-based
Experimental: (§1) Example 3: In Vitro “Proof of Concept” Study of Effects of Plazomicin on Isolates from Bacterial Keratitis and/or Conjunctivitis
(§2) Isolates from patients diagnosed clinically with microbial keratitis were tested for antibacterial susceptibility against plazomicin agents using reference broth microdilution methods.
(§3) 21 grams of Muller Hinton broth powder was suspended in 1000 ml of distilled water.
(§4) Pure cultures of bacterial isolates were prepared in Blood Agar/Mueller Hinton agar from cryovials.
(§5) A standardized inoculum of 0.5 McFarland was prepared using direct colony suspension method.
(§6) 3-5 well isolated colonies were taken from 18-24 hour culture plate and suspended into 2 ml of sterile saline/Muller Hinton broth.
(§7) A homogenous suspension was made, and the turbidity was adjusted to 0.5McFarland turbidity standard (approximately 1*10^6-8 CFU/ml) using the Densitometer.
(§8) A 0.1 ml of standardized bacterial inoculum was added to 9.9 ml of sterile saline solution. (i.e., a 1:100 dilution).
(§9) A 96 well round bottomed plate was used for the Microbroth dilution assay. […]
(§10) The plate was incubated for 18-24 hours to read the Minimum Inhibitory Concentration (MIC).
(§11) Gram positive isolates evaluated: • 1. […]

Moraxella lacunata = test: Broth microdilution antibacterial susceptibility (MIC), keratitis/conjunctivitis isolates; assay type: cell-based; conditions: at ≤2 mcg/mL
Experimental: as §1, §2, §3, §4, §5, §6, §7, §8
(§12) A 96 well round bottomed plate was used for the Microbroth dilution assay.
(§13) A 100 μl of Muller Hinton broth containing drug concentrations from 0.125 mcg/ml to 64 mcg/ml (0.125 mcg/ml, 0.25 mcg/ml, 0.5 mcg/ml, 1 mcg/ml, 2 mcg/ml, 4 mcg/ml, 8 mcg/ml, 16 mcg/ml, 32 mcg/ml, and 64 mcg/ml) were added to the 96 well.
(§14) To this a 100 μl of the diluted bacterial inoculum (1:100) was added to each well with varying concentration of drugs. Each well contained 5*10^5 CFU/ml bacteria.
(§15) Growth control (Respective organism+Muller Hinton broth) and sterility control (Sterile Muller Hinton broth) were added to the 96 well plate.
as §10
(§16) • 1. Pseudomonas • 2. Klebsiella pneumoniae • 3. Klebsiella pneumoniae (ESBLs) • 4. Moraxella lacunata • 5. Haemophilus influenzae • 6. Proteus • 7. Serratia • 8. Enterobacter e.

[2] = tested on: Enterobacterales isolates; test: as above; assay type: cell-based
Experimental: as §1, §2, §3, §4, §5, §6, §7, §8, §12, §13, §14, §15, §10, §16

Pseudomonas spp. = test: as above; assay type: cell-based
Experimental: as §1, §2, §3, §4, §5, §6, §7, §8, §12, §13, §14, §15, §10, §16

Enterobacter spp. = test: as above; assay type: cell-based; conditions: at ≤2 mcg/mL
Experimental: as §1, §2, §3, §4, §5, §6, §7, §8, §12, §13, §14, §15, §10, §16

conjunctival isolates = test: Broth microdilution antibacterial susceptibility (MIC), conjunctival isolates; assay type: cell-based; conditions: ≤4 mcg/mL
Experimental: as §1, §2, §3, §4, §5, §6, §7, §8, §9, §10, §11

S. epidermidis = test: Broth microdilution antibacterial susceptibility (MIC), keratitis/conjunctivitis isolates; assay type: cell-based, Staphylococcus epidermidis; conditions: at ≤2 mcg/mL
Experimental: as §1, §2, §3, §4, §5, §6, §7, §8, §9, §10, §11

S. haemolyticus = test: as above; assay type: cell-based, Staphylococcus haemolyticus; conditions: at ≤2 mcg/mL
Experimental: as §1, §2, §3, §4, §5, §6, §7, §8, §9, §10, §11

S. hominis = test: as above; assay type: cell-based, Staphylococcus hominis; conditions: at ≤2 mcg/mL
Experimental: as §1, §2, §3, §4, §5, §6, §7, §8, §9, §10, §11

[3] = tested on: Gram-negative enteric bacteria; conditions: cited from earlier work
[4] = tested on: species of Staphylococcus; conditions: cited from earlier work
Staphylococcus spp. = test: Broth microdilution antibacterial susceptibility (MIC), keratitis/conjunctivitis isolates; assay type: cell-based
Experimental: as §1, §2, §3, §4, §5, §6, §7, §8, §12, §13, §14, §15, §10
(§17) Gram positive isolates evaluated: • 1. Methicillin susceptible Staphylococcus aureus (MSSA) • 2. Methicillin resistant Staphylococcus aureus (MRSA) • 3. Staphylococcus epidermidis • 4. Staphylococcus hominis • 5. Staphylococcus haemolyticus • 6. Streptococcus pneumoniae • 7. Corynebacterium

Corynebacterium = test: as above; assay type: cell-based; conditions: at ≤2 mcg/mL
Experimental: as §1, §2, §3, §4, §5, §6, §7, §8, §12, §13, §14, §15, §10, §17

[5] = tested on: Methicillin resistant Staphylococcus aureus (MRSA); test: as above; assay type: cell-based
Experimental: as §1, §2, §3, §4, §5, §6, §7, §8, §12, §13, §14, §15, §10, §17

[6] = tested on: Methicillin susceptible Staphylococcus aureus (MSSA); test: as above; assay type: cell-based
Experimental: as §1, §2, §3, §4, §5, §6, §7, §8, §12, §13, §14, §15, §10, §17

MSSA = conditions: vs amikacin; cited from earlier work
MRSA = conditions: vs amikacin; cited from earlier work
[7] = Staphylococcus aureus, 18-24 hours incubation

Q: Which “antibacterial activity (conclusion)” value [1] does the source give for `CN[C@@H]1[C@@H](O)[C@@H](O[C@@H]2[C@@H](O)[C@H](O[C@H]3OC(CNCCO)=CC[C@H]3N)[C@@H](N)C[C@H]2NC(=O)[C@@H](O)CCN)OC[C@]1(C)O` [Plazomicin] here?
A: Its value is “very good antibacterial activity”.

Q: What about the “activity (% of isolates)” value (Moraxella lacunata) of the same molecule?
A: The value was 100%.

Q: And the isolates inhibited ([2]; at ≤2 mcg/mL)?
A: The isolates inhibited was 61.5%.

Q: And the isolates inhibited ([2]; at ≤4 mcg/mL)?
A: Its isolates inhibited is 11.5%.

Q: And the “showed activity for % of isolates” value (Pseudomonas spp.)?
A: Its value is 50%.

Q: And the MIC50 (Pseudomonas spp.; 18-24 hours incubation)?
A: Its MIC50 is 4 µg/mL (≈ 6.75 µM).

Q: And the MIC90 (Pseudomonas spp.; 18-24 hours incubation)?
A: Its MIC90 is 16 µg/mL (≈ 27 µM).

Q: And the “activity (% of isolates)” value (Enterobacter spp.)?
A: Its value is 100%.

Q: And the “susceptibility of conjunctival isolates” value (conjunctival isolates)?
A: The value was 100%.

Q: And the “activity (% of isolates)” value (S. epidermidis)?
A: Its value is 100%.

Q: And the “activity (% of isolates)” value (S. haemolyticus)?
A: Its value is 100%.

Q: And the “activity (% of isolates)” value (S. hominis)?
A: The value was 100%.

Q: What about the “in vitro activity compared with amikacin, gentamicin and tobramycin” value [3] of the same molecule?
A: Its value is “more potent in vitro activity than amikacin, gentamicin and tobramycin”.

Q: What about the activity [4] of the same molecule?
A: Its activity is “potent activity”.

Q: And the isolates inhibited (Staphylococcus spp.; at ≤2 mcg/mL)?
A: Its isolates inhibited is 46%.

Q: And the isolates inhibited (Staphylococcus spp.; at ≤4 mcg/mL)?
A: The isolates inhibited was 73.5%.

Q: What about the isolates inhibited (Staphylococcus spp.; at ≤8 mcg/mL) of the same molecule?
A: Its isolates inhibited is 90.10%.

Q: And the “activity (% of isolates)” value (Corynebacterium)?
A: Its value is 100%.

Q: What about the susceptible isolates [5] of the same molecule?
A: Its susceptible isolates is 60%.

Q: And the MIC50 [5, 7]?
A: The MIC50 was 2 µg/mL (≈ 3.37 µM).

Q: And the MIC90 [5, 7]?
A: The MIC90 was 8 µg/mL (≈ 13.5 µM).

Q: What about the susceptible isolates [6] of the same molecule?
A: The susceptible isolates was 67.3%.

Q: And the MIC50 [6, 7]?
A: The MIC50 was 2 µg/mL (≈ 3.37 µM).

Q: And the MIC90 [6, 7]?
A: Its MIC90 is 8 µg/mL (≈ 13.5 µM).

Q: And the “activity compared with amikacin” value (MSSA)?
A: Its value is “greater activity than amikacin”.

Q: What about the “activity compared with amikacin” value (MRSA) of the same molecule?
A: Its value is “greater activity than amikacin”.
